Key:
Type in all cases: in vivo
Conditions in all cases: 14 days after application
[1] = test system: green foxtail (Setaria viridis, SETVI); experiment: Pre-emerge greenhouse herbicide activity screening, phytotoxicity rating
Text: (§1) A standard greenhouse herbicide activity screening system was used to evaluate the herbicidal efficacy and crop safety of these test compounds. Seven broadleaf weed species including redroot pigweed (Amaranthus retroflexus, AMARE), velvetleaf (Abutilon theophrasti, ABUTH), sicklepod (Cassia obtusifolia, CASOB), ivyleaf morningglory (Ipomoea hederacea, IPOHE), lambsquarters (Chenopodium album, CHEAL), common ragweed (Ambrosia artemisiifolia L., AMBEL), and cocklebur (Xanthium strumarium, XANST) were used as test species. Four grass weed species including green foxtail (Setaria viridis, SETVI), barnyardgrass (Echinochloa crus-galli, ECHCG), johnsongrass (Sorghum halepense, SORHA), and large crabgrass (Digitaria sanguinalis, DIGSA) were also used. In addition, three crop species, field corn (Zea mays L., var. Dekalb 535, CORN), soybean (Glycine max L., var. Pella 86, SOY), and upland rice (Oryza sp., var.Tebonnet, RICE) were included.
(§2) All plants were grown in 10 cm square plastic pots which were filled with a sandy loam soil mix. For pre-emerge tests, seeds were planted one day prior to application of the test compounds. For post-emerge tests, seeds were planted 8-21 days prior to the test to allow emergence and good foliage development prior to application of the test substances. At the time of the post-emerge application, plants of all species were usually at the 2-3 leaf stage of development.
(§3) All test compounds were dissolved in acetone and applied to the test units in a volume of 187 1/ha. Test materials were applied at rates ranging from 15 g ai/ha to 1000 g ai/ha using a track sprayer equipped with a TJ8001E even flow flat fan spray nozzle. Plants were arranged on a shelf so that the top of the canopy (post-emerge) or top of the soil surface (pre-emerge) was 40-45 cm below the nozzle. Pressurized air was used to force the test solution through the nozzle as it was mechanically advanced (via electrically driven chain drive) over the top of all test plants/pots. This application simulates a typical commercial field herbicide application.
(§4) In the post-emerge test, a commercial non-ionic surfactant was also included (0.25% v/v) to enhance wetting of the leaf surfaces of target plants. Immediately after application, test units of the pre-emerge applications were watered at the soil surface to incorporate the test materials. Subsequently, these test units were bottom-watered. Post-emerge test units were always bottom-watered.
(§5) At 14 days after application of the test materials, phytotoxicity ratings were recorded. A rating scale of 0-100 was used as previously described in Research Methods in Weed Science, 2nd edition, B. Truelove, Ed., Southern Weed Science Society, Auburn University, Auburn, Ala., 1977. Briefly, “0” corresponds to no damage and “100” corresponds to complete death of all plants in the test unit. This scale was used both to determine efficacy against weed species and damage to crop species. Herbicide activity data for various compounds of this invention, which are shown by compound No. in Tables I-VI, are shown in Tables VIII-IX.

[2] = test system: barnyardgrass (Echinochloa crus-galli, ECHCG); experiment: as above
Text: as §1, §2, §3, §4, §5

[3] = test system: large crabgrass (Digitaria sanguinalis, DIGSA); experiment: as above
Text: as §1, §2, §3, §4, §5

[4] = test system: common ragweed (Ambrosia artemisiifolia L., AMBEL); experiment: as above
Text: as §1, §2, §3, §4, §5

[5] = test system: redroot pigweed (Amaranthus retroflexus, AMARE); experiment: as above
Text: as §1, §2, §3, §4, §5

[6] = test system: velvetleaf (Abutilon theophrasti, ABUTH); experiment: as above
Text: as §1, §2, §3, §4, §5

[7] = test system: ivyleaf morningglory (Ipomoea hederacea, IPOHE); experiment: as above
Text: as §1, §2, §3, §4, §5

[8] = test system: sicklepod (Cassia obtusifolia, CASOB); experiment: as above
Text: as §1, §2, §3, §4, §5

[9] = test system: johnsongrass (Sorghum halepense, SORHA); experiment: as above
Text: as §1, §2, §3, §4, §5

[10] = test system: lambsquarters (Chenopodium album, CHEAL); experiment: as above
Text: as §1, §2, §3, §4, §5

[11] = test system: field corn (Zea mays L., var. Dekalb 535, CORN); experiment: Post-emerge greenhouse screening, crop safety / corn selectivity (phytotoxicity rating)
Text: as §1, §2, §3, §4, §5

[12] = test system: soybean (Glycine max L., var. Pella 86, SOY); experiment: Post-emerge greenhouse screening, crop safety (phytotoxicity rating)
Text: as §1, §2, §3, §4, §5

[13] = test system: upland rice (Oryza sp., var.Tebonnet, RICE); experiment: as above
Text: as §1, §2, §3, §4, §5

[14] = test system: soybean (Glycine max L., var. Pella 86, SOY); experiment: Pre-emerge greenhouse screening, crop safety (phytotoxicity rating)
Text: as §1, §2, §3, §4, §5

[15] = test system: field corn (Zea mays L., var. Dekalb 535, CORN); experiment: as above
Text: as §1, §2, §3, §4, §5

[16] = test system: upland rice (Oryza sp., var.Tebonnet, RICE); experiment: as above
Text: as §1, §2, §3, §4, §5

[17] = test system: green foxtail (Setaria viridis, SETVI); experiment: Post-emerge greenhouse herbicide activity screening, phytotoxicity rating
Text: as §1, §2, §3, §4, §5

[18] = test system: barnyardgrass (Echinochloa crus-galli, ECHCG); experiment: as above
Text: as §1, §2, §3, §4, §5

[19] = test system: large crabgrass (Digitaria sanguinalis, DIGSA); experiment: as above
Text: as §1, §2, §3, §4, §5

[20] = test system: common ragweed (Ambrosia artemisiifolia L., AMBEL); experiment: as above
Text: as §1, §2, §3, §4, §5

[21] = test system: redroot pigweed (Amaranthus retroflexus, AMARE); experiment: as above
Text: as §1, §2, §3, §4, §5

[22] = test system: velvetleaf (Abutilon theophrasti, ABUTH); experiment: as above
Text: as §1, §2, §3, §4, §5

[23] = test system: ivyleaf morningglory (Ipomoea hederacea, IPOHE); experiment: as above
Text: as §1, §2, §3, §4, §5

[24] = test system: sicklepod (Cassia obtusifolia, CASOB); experiment: as above
Text: as §1, §2, §3, §4, §5

[25] = test system: johnsongrass (Sorghum halepense, SORHA); experiment: as above
Text: as §1, §2, §3, §4, §5

[26] = test system: lambsquarters (Chenopodium album, CHEAL); experiment: as above
Text: as §1, §2, §3, §4, §5

Cn1c(C(F)(F)F)cc(=O)n(-c2cc(Oc3ncccc3[N+](=O)[O-])c(Cl)cc2F)c1=S [Compound 1-9]
SETVI phytotoxicity rating (0-100 scale) ([1]; 125 g ai/ha): 100 | SETVI phytotoxicity rating (0-100 scale) ([1]; 250 g ai/ha): 100 | ECHCG phytotoxicity rating (0-100 scale) ([2]; 125 g ai/ha): 95 | ECHCG phytotoxicity rating (0-100 scale) ([2]; 250 g ai/ha): 99 | DIGSA phytotoxicity rating (0-100 scale) ([3]; 125 g ai/ha): 98 | DIGSA phytotoxicity rating (0-100 scale) ([3]; 250 g ai/ha): 99 | AMBEL phytotoxicity rating (0-100 scale) ([4]; 125 g ai/ha): 99 | AMBEL phytotoxicity rating (0-100 scale) ([4]; 250 g ai/ha): 100 | AMARE phytotoxicity rating (0-100 scale) ([5]; 125 g ai/ha): 100 | AMARE phytotoxicity rating (0-100 scale) ([5]; 250 g ai/ha): 100 | ABUTH phytotoxicity rating (0-100 scale) ([6]; 125 g ai/ha): 100 | ABUTH phytotoxicity rating (0-100 scale) ([6]; 250 g ai/ha): 100 | IPOHE phytotoxicity rating (0-100 scale) ([7]; 125 g ai/ha): 100 | IPOHE phytotoxicity rating (0-100 scale) ([7]; 250 g ai/ha): 100 | CASOB phytotoxicity rating (0-100 scale) ([8]; 125 g ai/ha): 70 | CASOB phytotoxicity rating (0-100 scale) ([8]; 250 g ai/ha): 99 | SORHA phytotoxicity rating (0-100 scale) ([9]; 125 g ai/ha): 95 | SORHA phytotoxicity rating (0-100 scale) ([9]; 250 g ai/ha): 99 | CHEAL phytotoxicity rating (0-100 scale) ([10]; 125 g ai/ha): 100 | CHEAL phytotoxicity rating (0-100 scale) ([10]; 250 g ai/ha): 100 | CORN crop damage, phytotoxicity rating (0-100 scale) ([11]; 125 g ai/ha): 0 | CORN crop damage, phytotoxicity rating (0-100 scale) ([11]; 250 g ai/ha): 3 | SOY crop damage, phytotoxicity rating (0-100 scale) ([12]; 125 g ai/ha): 55 | SOY crop damage, phytotoxicity rating (0-100 scale) ([12]; 250 g ai/ha): 80 | RICE crop damage, phytotoxicity rating (0-100 scale) ([13]; 125 g ai/ha): 0 | RICE crop damage, phytotoxicity rating (0-100 scale) ([13]; 250 g ai/ha): 0 | SOY crop damage, phytotoxicity rating (0-100 scale) ([14]; 125 g ai/ha): 50 | SOY crop damage, phytotoxicity rating (0-100 scale) ([14]; 250 g ai/ha): 50 | CORN crop damage, phytotoxicity rating (0-100 scale) ([15]; 125 g ai/ha): 8 | CORN crop damage, phytotoxicity rating (0-100 scale) ([15]; 250 g ai/ha): 8 | RICE crop damage, phytotoxicity rating (0-100 scale) ([16]; 125 g ai/ha): 35 | RICE crop damage, phytotoxicity rating (0-100 scale) ([16]; 250 g ai/ha): 35 | SETVI phytotoxicity rating (0-100 scale) ([17]; 125 g ai/ha): 60 | SETVI phytotoxicity rating (0-100 scale) ([17]; 250 g ai/ha): 70 | ECHCG phytotoxicity rating (0-100 scale) ([18]; 125 g ai/ha): 50 | ECHCG phytotoxicity rating (0-100 scale) ([18]; 250 g ai/ha): 65 | DIGSA phytotoxicity rating (0-100 scale) ([19]; 125 g ai/ha): 50 | DIGSA phytotoxicity rating (0-100 scale) ([19]; 250 g ai/ha): 60 | AMBEL phytotoxicity rating (0-100 scale) ([20]; 125 g ai/ha): 70 | AMBEL phytotoxicity rating (0-100 scale) ([20]; 250 g ai/ha): 70 | AMARE phytotoxicity rating (0-100 scale) ([21]; 125 g ai/ha): 100 | AMARE phytotoxicity rating (0-100 scale) ([21]; 250 g ai/ha): 100 | ABUTH phytotoxicity rating (0-100 scale) ([22]; 125 g ai/ha): 100 | ABUTH phytotoxicity rating (0-100 scale) ([22]; 250 g ai/ha): 100 | IPOHE phytotoxicity rating (0-100 scale) ([23]; 125 g ai/ha): 100 | IPOHE phytotoxicity rating (0-100 scale) ([23]; 250 g ai/ha): 100 | CASOB phytotoxicity rating (0-100 scale) ([24]; 125 g ai/ha): 50 | CASOB phytotoxicity rating (0-100 scale) ([24]; 250 g ai/ha): 65 | SORHA phytotoxicity rating (0-100 scale) ([25]; 125 g ai/ha): 50 | SORHA phytotoxicity rating (0-100 scale) ([25]; 250 g ai/ha): 50 | CHEAL phytotoxicity rating (0-100 scale) ([26]; 125 g ai/ha): 100 | CHEAL phytotoxicity rating (0-100 scale) ([26]; 250 g ai/ha): 100
